The values below come from US20050085557A1, “Therapeutic procedures” (priority 2003, published 2005).

Data set [1] relates to J774.1 macrophages. Put plainly: Lipid-loading assay (foam cell formation). It counts as cell-based, murine. Conditions: LDL 100 μg/mL with compound (20 μM), 72 h, unactivated J774.1 macrophages. On the procedure:
Macrophages were first grown for 24 h in RPMI-1640 containing 10% fetal bovine serum and then incubated for 72 h in the same media containing LDL (100 μg/mL). Cells were fixed with 4% formaldehyde and stained with hematoxylin and oil red O such that lipid granules stained a darker red color. Magnification×100.
J774.1 macrophages were grown for 24 h in RPMI-1640 containing 10% fetal bovine serum. […] Cells were fixed with 4% formaldehyde and stained with hematoxylin and oil red O such that lipid granules stained a darker red color. Magnification×100.
Lipid-loading assay (foam cellformation). J774.1 macrophages were incubated in ATCC-recommended media containing 10% fetal bovine serum under a controlled atmosphere of 5 or 7% CO2 at 37° C., in 8-well chamber slides. […] At termination, cells were washed twice with PBS (pH 7.4). The cells were then fixed with 6% (v/v) paraformaldehyde in PBS for 30 minutes, rinsed with propylene glycol for 2 minutes and lipids were stained with 5 mg/ml Oil Red O for 8 minutes. The cells were counterstained with Harris' hematoxylin for 45 seconds, and background staining was removed with […] followed by washing once in PBS and once in tap water. […] The number of lipid-laden cells was scored out of a total of at least 100 cells counted in a single field in each slide, and expressed as a percentage of total cells. […]

The target of data set [2] is T1, LDL / apoB-100 (Homo sapiens, UniProt P04114).
T1 construct: Circular dichroism (CD) spectra of LDL (100 μg/ml)
Put plainly: Circular dichroism of LDL secondary structure. In kind it is biochemical. Conditions: LDL 100 μg/ml, compound 10 μM, PBS pH 7.4, 37° C., 48 h; for random coil of LDL after incubation (circular dichroism): normal LDL 27±2%; for a helical structure of LDL after incubation (circular dichroism): normal LDL ~40±2%. (In general: CD spectra are sensitive to the conformation of chiral molecules.)
Experimental: Circular dichroism. […] Spectra were recorded in the peptidic range (200-260 nm). To increase the signal-to-noise ratio, multiple spectra (three) were averaged for each measurement.

Data set [3] is described as follows: Aldolization of secoketoaldehyde 4a with atherosclerotic artery and blood fractions (1H NMR). It counts as in vitro ADME, human. Conditions: lyophilized PBS. On the procedure:
Aldolization of secoketoaldehyde 4a with atherosclerotic artery and blood fractions. […] To this solution was added either a) atherosclerotic artery (2.1 mg) that had been homogenized in PBS (1 ml) in a tissue homogenizer and then lyophilized to dryness, b) lyophilized human blood (1 ml), c) lyophilized human plasma (1 ml) or d) PBS lyophilized (1 ml). At time points samples were removed and analyzed by ^1H NMR vide supra.

Data set [4] in a line: Aldolization of ketoaldehyde 4a with amino acids (1H NMR). It counts as physicochemical. Conditions: DMSO-d6 (800 μl) and D2O (80 μl) without amino acid. On the procedure:
Aldolization of ketoaldehyde 4a with amino acids. […] To this solution was added 1 equivalent of either: a) L-proline, […] b) glycine, c) L-lysine hydrochloride or d) L-lysine ethyl ester dihydrochloride. At time points the samples were analyzed by ^1H NMR.

For data set [5], the system named is T-lymphocyte cell line (Jurkat E6.1). Description: Cytotoxicity assay (LDH release), Jurkat E6.1. In kind it is cell-based. Conditions: FIG. 6B; in this concentration range (0-100 μM). On the procedure:
Cytotoxicity assays. WI-L2 human B-lymphocyte line, HAAE-1 human abdominal aortic endothelial line, MH-S murine alveolar macrophage line, and J774A.1 murine tissue macrophage line were obtained from the ATCC. Human aortic endothelial cells (HAEC) and human vascular smooth muscle cells (VSMS) were obtained from Cambrex Bio Science. […] Cells were cultured in ATCC-recommended media with 10% fetal calf serum. Cells were incubated in a controlled atmosphere at 37° C., with 5 or 7% CO2. For lactate dehydrogenase (LDH) release assays, adherent cells were harvested either by addition of 0.05% trypsin/EDTA or by scraping. The cells obtained were seeded onto 96-well microtiter plates (25,000 cells/well) and allowed to recover for 24-48 h. Cells were washed gently and media replaced with fresh media containing 5% fetal calf serum. […] Cytotoxicity was then determined by measuring lactate dehydrogenase (LDH) release from cells in culture. […] 100% Cytotoxicity was defined as the maximum amount of LDH released by dead cells as shown by trypan blue exclusion, or the highest amount of LDH detected upon lysis of cells by 0.9% Triton X-100. The IC50 values were determined by comparison of the raw duplicate data for concentration versus cytotoxicity (%) to non-linear regression analysis (Hill plot) using Graphpad v3.0 software for Macintosh. […]
On the technique in general: Release of lactate dehydrogenase indicates damage to the cell membrane.

The test system of data set [6] is human B-lymphocyte (WI-L2) cell line. Description: Cytotoxicity assay (LDH release), WI-L2. In kind it is cell-based. Conditions: FIG. 6A; in this concentration range (0-100 μM). On the procedure:
Cytotoxicity assays. WI-L2 human B-lymphocyte line, HAAE-1 human abdominal aortic endothelial line, MH-S murine alveolar macrophage line, and J774A.1 murine tissue macrophage line were obtained from the ATCC. Human aortic endothelial cells (HAEC) and human vascular smooth muscle cells (VSMS) were obtained from Cambrex Bio Science. Jurkat E6-IT-lymphocytes were kindly provided by Dr. J. Kaye (The Scripps Research Institute). Cells were cultured in ATCC-recommended media with 10% fetal calf serum. Cells were incubated in a controlled atmosphere at 37° C., with 5 or 7% CO2. For lactate dehydrogenase (LDH) release assays, adherent cells were harvested either by addition of 0.05% trypsin/EDTA or by scraping. The cells obtained were seeded onto 96-well microtiter plates (25,000 cells/well) and allowed to recover for 24-48 h. […] Cytotoxicity was then determined by measuring lactate dehydrogenase (LDH) release from cells in culture. […] 100% Cytotoxicity was defined as the maximum amount of LDH released by dead cells as shown by trypan blue exclusion, or the highest amount of LDH detected upon lysis of cells by 0.9% Triton X-100. The IC50 values were determined by comparison of the raw duplicate data for concentration versus cytotoxicity (%) to non-linear regression analysis (Hill plot) using Graphpad v3.0 software for Macintosh. […]

Molecules are shown by their SMILES.

T1 sequence (P04114 28-4563, species assumed): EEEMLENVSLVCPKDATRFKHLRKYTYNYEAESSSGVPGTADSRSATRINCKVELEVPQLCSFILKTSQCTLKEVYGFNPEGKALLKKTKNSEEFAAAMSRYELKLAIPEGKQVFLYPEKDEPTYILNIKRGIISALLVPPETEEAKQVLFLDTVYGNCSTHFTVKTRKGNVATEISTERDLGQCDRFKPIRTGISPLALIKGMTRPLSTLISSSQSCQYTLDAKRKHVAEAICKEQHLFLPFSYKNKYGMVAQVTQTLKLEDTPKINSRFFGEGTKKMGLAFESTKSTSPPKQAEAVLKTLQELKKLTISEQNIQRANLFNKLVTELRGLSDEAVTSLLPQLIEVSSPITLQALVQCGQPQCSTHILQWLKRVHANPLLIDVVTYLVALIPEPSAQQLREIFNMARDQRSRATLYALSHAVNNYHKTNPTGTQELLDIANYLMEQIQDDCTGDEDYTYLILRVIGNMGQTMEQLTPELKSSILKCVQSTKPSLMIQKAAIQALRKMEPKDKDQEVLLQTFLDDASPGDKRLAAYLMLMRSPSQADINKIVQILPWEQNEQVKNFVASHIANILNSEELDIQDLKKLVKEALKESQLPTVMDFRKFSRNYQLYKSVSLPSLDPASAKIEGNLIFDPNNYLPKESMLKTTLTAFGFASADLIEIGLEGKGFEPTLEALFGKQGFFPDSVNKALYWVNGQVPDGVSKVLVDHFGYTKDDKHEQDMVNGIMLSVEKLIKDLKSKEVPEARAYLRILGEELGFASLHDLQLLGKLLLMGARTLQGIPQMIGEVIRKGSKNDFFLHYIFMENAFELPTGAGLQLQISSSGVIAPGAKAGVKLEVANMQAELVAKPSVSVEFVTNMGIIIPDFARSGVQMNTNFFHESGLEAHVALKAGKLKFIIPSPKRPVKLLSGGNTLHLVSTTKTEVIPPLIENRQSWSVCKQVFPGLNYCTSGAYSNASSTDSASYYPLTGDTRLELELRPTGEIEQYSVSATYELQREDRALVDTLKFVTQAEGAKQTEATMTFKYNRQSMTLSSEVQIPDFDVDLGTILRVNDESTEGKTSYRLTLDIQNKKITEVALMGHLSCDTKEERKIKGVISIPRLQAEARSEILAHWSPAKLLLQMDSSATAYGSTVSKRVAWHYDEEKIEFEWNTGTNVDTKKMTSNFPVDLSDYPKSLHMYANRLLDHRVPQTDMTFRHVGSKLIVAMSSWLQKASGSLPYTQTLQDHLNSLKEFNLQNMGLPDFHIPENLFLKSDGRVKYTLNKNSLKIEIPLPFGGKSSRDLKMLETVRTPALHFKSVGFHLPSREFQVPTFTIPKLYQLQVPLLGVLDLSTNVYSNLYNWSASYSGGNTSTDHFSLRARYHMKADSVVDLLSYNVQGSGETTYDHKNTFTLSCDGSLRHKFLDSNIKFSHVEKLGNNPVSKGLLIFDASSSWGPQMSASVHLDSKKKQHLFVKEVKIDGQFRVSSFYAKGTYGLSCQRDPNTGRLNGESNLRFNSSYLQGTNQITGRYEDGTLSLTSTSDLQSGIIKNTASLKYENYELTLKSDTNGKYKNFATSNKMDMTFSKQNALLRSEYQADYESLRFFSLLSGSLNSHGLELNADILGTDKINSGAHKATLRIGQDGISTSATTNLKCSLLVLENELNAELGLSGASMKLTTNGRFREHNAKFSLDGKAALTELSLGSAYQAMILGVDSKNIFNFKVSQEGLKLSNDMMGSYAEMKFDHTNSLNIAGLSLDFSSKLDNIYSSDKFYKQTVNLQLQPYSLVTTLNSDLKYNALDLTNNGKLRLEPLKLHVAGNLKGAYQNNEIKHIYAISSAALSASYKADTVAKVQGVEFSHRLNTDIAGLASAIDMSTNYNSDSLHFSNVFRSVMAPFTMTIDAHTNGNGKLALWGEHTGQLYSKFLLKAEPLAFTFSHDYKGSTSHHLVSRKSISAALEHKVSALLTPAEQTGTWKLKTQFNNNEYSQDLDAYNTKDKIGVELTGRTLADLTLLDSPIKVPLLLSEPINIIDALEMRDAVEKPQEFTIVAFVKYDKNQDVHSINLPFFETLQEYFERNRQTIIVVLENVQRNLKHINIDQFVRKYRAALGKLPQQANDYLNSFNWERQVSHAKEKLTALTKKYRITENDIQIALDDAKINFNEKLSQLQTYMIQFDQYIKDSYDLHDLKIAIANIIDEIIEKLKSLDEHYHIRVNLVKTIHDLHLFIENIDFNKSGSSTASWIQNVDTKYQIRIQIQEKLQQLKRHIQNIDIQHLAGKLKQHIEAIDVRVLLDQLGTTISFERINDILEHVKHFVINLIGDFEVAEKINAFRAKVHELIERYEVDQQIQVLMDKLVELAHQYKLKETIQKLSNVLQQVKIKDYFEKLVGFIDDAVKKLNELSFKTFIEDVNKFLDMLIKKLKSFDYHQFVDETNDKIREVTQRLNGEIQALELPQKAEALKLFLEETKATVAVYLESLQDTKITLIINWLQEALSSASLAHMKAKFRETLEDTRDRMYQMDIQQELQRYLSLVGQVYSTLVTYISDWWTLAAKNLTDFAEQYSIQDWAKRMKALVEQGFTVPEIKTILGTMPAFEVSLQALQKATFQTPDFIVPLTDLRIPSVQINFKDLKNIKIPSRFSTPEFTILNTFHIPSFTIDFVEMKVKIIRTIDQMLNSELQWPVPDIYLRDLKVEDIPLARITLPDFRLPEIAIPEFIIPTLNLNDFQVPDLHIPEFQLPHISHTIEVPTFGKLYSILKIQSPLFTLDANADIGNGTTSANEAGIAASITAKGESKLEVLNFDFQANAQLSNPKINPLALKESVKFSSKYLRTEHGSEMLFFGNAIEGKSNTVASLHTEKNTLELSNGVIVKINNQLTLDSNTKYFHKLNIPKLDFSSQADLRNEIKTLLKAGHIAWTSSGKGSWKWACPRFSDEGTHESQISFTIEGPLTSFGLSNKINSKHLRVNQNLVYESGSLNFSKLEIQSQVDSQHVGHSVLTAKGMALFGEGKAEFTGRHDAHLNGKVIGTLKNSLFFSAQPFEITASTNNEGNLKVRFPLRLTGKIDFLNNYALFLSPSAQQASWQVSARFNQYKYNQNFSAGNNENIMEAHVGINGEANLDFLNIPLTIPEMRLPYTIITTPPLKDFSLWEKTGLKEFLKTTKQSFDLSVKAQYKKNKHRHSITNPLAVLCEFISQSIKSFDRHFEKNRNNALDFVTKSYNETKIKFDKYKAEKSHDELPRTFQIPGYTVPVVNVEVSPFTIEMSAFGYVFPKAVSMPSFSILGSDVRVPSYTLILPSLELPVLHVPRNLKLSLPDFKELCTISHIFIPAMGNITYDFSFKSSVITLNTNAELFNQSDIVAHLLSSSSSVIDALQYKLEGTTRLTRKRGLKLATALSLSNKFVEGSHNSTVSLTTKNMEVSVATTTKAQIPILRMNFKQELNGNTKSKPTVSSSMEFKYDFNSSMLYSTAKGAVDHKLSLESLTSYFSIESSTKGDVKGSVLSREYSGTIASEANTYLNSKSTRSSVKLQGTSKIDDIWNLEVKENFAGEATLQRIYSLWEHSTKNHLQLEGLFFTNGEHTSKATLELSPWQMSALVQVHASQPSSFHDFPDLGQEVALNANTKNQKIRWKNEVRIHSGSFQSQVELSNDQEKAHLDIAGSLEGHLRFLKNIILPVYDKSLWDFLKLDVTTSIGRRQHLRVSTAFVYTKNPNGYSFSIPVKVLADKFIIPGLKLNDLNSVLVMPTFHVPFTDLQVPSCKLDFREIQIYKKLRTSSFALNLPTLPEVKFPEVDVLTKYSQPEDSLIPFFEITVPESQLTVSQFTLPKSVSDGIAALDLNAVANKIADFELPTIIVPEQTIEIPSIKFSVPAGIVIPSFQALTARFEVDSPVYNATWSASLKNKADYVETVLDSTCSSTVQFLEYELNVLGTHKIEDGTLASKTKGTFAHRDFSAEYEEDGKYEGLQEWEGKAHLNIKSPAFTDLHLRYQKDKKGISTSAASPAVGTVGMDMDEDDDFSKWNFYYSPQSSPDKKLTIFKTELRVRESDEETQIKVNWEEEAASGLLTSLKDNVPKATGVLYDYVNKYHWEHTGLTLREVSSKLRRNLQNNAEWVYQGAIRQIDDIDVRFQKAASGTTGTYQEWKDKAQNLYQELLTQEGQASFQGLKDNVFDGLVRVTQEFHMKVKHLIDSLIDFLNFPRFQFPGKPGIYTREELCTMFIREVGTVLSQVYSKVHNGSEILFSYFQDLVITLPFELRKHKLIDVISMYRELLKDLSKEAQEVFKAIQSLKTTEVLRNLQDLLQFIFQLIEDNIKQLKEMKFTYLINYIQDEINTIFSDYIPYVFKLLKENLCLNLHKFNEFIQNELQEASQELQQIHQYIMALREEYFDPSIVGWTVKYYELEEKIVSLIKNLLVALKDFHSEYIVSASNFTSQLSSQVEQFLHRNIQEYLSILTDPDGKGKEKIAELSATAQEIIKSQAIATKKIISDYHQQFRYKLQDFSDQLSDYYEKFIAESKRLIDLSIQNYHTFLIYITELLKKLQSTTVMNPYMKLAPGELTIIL

For `CC(C)CCC[C@@H](C)[C@H]1CCC2C3C(CC[C@@]21C)[C@@]1(C)CC[C@H](O)C[C@@]1(O)[C@@H]3C=O` (stereo partly drawn) [5a, 3β-Hydroxy-5β-hydroxy-B-norcholestane-6β-carboxaldehyde], the “lipid-loading of macrophages / foam cell formation” value in data set [1] was “foam cells began to appear”. Moreover, in data set [2], the “random coil of LDL after incubation (circular dichroism)” value is 32±+4% and the “a helical structure of LDL after incubation (circular dichroism)” value was about 20±2%.
As to `CC(C)CCC[C@@H](C)[C@H]1CCC2C(CC=O)C([C@@]3(C)CC[C@H](O)CC3=O)CC[C@@]21C` (stereo partly drawn) [4a, 3β-Hydroxy-5-oxo-5,6-secocholestan-6-al], the “aldolization of 4a (background)” value in data set [3] and in data set [4] was “no aldolization” in each case. Besides, in data set [1], the “lipid-loading of macrophages / foam cell formation” value was “foam cells began to appear”. Further, in data set [2], the “random coil of LDL after incubation (circular dichroism)” value is on record as about 39±2%. Also, the “a helical structure of LDL after incubation (circular dichroism)” value in data set [2] was about 23±5%.
As for `CC(C)CCC[C@@H](C)[C@H]1CC[C@H]2[C@@H]3CC=C4C[C@@H](O)CC[C@]4(C)[C@H]3CC[C@]12C` [compound 3, cholesterol], the “cytotoxicity against T-cell (Jurkat) cell line” value in data set [5] is “No cytotoxicity”. In addition, in data set [6], the “cytotoxicity against B-cell (WI-L2) cell line” value is given as “No cytotoxicity”.
